{"source": "patent US20240132484A1", "about": "“BROAD SPECTRUM ANTIVIRAL COMPOUNDS TARGETING THE SKI COMPLEX” (priority 2020, published 2024)", "key": {"[1]": {"tested_on": "cells (nuclei count)", "details": "for Relative cell count to DMSO controls, Average 1 μM / Relative cell count to DMSO controls, Average 5 μM / Relative cell count to DMSO controls, Average 10 μM / Relative cell count to DMSO controls, Average 25 μM / Relative cell count to DMSO controls, Average 50 μM: toxicity data, 100=DMSO control; for Relative cell count to DMSO controls, Average (for correlation analysis): average value over the 5 tested concentrations (1 to 50 uM)"}, "[2]": {"tested_on": "SARS2", "type": "cell-based, SARS-CoV-2", "details": "for Percentage Inhibition Average 1 μM / Screening data (Relative infection to DMSO controls) Average 1 μM: SARS2, 1 μM; for Screening data (Relative infection to DMSO controls) Average 1 μM / Screening data (Relative infection to DMSO controls) Average 5 μM / Screening data (Relative infection to DMSO controls) Average 10 μM / Screening data (Relative infection to DMSO controls) Average 25 μM / Screening data (Relative infection to DMSO controls) Average 50 μM / Average (relative infection to DMSO over the 5 tested concentrations): 100=DMSO control; for Percentage Inhibition Average 5 μM / Screening data (Relative infection to DMSO controls) Average 5 μM: SARS2, 5 μM; for Percentage Inhibition Average 10 μM / Screening data (Relative infection to DMSO controls) Average 10 μM: SARS2, 10 μM; for Percentage Inhibition Average 25 μM / Screening data (Relative infection to DMSO controls) Average 25 μM: SARS2, 25 μM; for Percentage Inhibition Average 50 μM / Screening data (Relative infection to DMSO controls) Average 50 μM: SARS2, 50 μM; for Average (relative infection to DMSO over the 5 tested concentrations): SARS2, average over 1 to 50 uM; for Percentage Infection Relative to Appropriate DMSO Control with Avg Background Subtraction: single well"}}, "note": "Values joined by “and” are separate entries in the source; they are usually repeats but may differ in a detail not shown here. Equal values may be shown once. Read-outs that look alike come from different tables or passages of the source."}
{"smiles": "CN(C)CCN(Cc1ccccc1)Cc1cc(C#CCO)cs1", "note": "[SILCS5]", "values": [{"measurement": "Relative cell count to DMSO controls, Average 1 μM", "setting": "[1]", "result": 113.75}, {"measurement": "Relative cell count to DMSO controls, Average 5 μM", "setting": "[1]", "result": 108.79}, {"measurement": "Relative cell count to DMSO controls, Average 10 μM", "setting": "[1]", "result": 102.76}, {"measurement": "Relative cell count to DMSO controls, Average 25 μM", "setting": "[1]", "result": 105.3}, {"measurement": "Relative cell count to DMSO controls, Average 50 μM", "setting": "[1]", "result": 75.59}, {"measurement": "Toxicity Data, Average, Mean (relative to DMSO control)", "setting": "[1]; Average of Exp 1-3, 1 uM", "result": 113.75, "unit": "%"}, {"measurement": "Toxicity Data, Average, Mean (relative to DMSO control)", "setting": "[1]; Average of Exp 1-3, 5 uM", "result": 108.79, "unit": "%"}, {"measurement": "Toxicity Data, Average, Mean (relative to DMSO control)", "setting": "[1]; Average of Exp 1-3, 10 uM", "result": 102.76, "unit": "%"}, {"measurement": "Toxicity Data, Average, Mean (relative to DMSO control)", "setting": "[1]; Average of Exp 1-3, 25 uM", "result": 105.30, "unit": "%"}, {"measurement": "Toxicity Data, Average, Mean (relative to DMSO control)", "setting": "[1]; Average of Exp 1-3, 50 uM", "result": 75.59, "unit": "%"}, {"measurement": "Relative cell count to DMSO controls, Average (for correlation analysis)", "setting": "[1]", "result": 101.24}, {"measurement": "Percentage Infection Relative to DMSO Control, Average, Mean", "setting": "[2]", "result": "75.63% and 81.28% and 98.58% and 104.84% and 111.97%"}, {"measurement": "Percentage Inhibition Average 1 μM", "setting": "[2]", "result": "−11.97", "unit": "%"}, {"measurement": "Screening data (Relative infection to DMSO controls) Average 1 μM", "setting": "[2]", "result": 111.97}, {"measurement": "Percentage Inhibition Average 5 μM", "setting": "[2]", "result": "−4.84", "unit": "%"}, {"measurement": "Screening data (Relative infection to DMSO controls) Average 5 μM", "setting": "[2]", "result": 104.84}, {"measurement": "Percentage Inhibition Average 10 μM", "setting": "[2]", "result": 1.42, "unit": "%"}, {"measurement": "Screening data (Relative infection to DMSO controls) Average 10 μM", "setting": "[2]", "result": 98.58}, {"measurement": "Percentage Inhibition Average 25 μM", "setting": "[2]", "result": 18.72, "unit": "%"}, {"measurement": "Screening data (Relative infection to DMSO controls) Average 25 μM", "setting": "[2]", "result": 81.28}, {"measurement": "Percentage Inhibition Average 50 μM", "setting": "[2]", "result": 24.37, "unit": "%"}, {"measurement": "Screening data (Relative infection to DMSO controls) Average 50 μM", "setting": "[2]", "result": 75.63}, {"measurement": "Average (relative infection to DMSO over the 5 tested concentrations)", "setting": "[2]", "result": 94.46}]}
{"smiles": "CCN(CC)CCN(Cc1ccccc1)Cc1ccc(C)o1", "note": "[SILCS23]", "values": [{"measurement": "Relative cell count to DMSO controls, Average 1 μM", "setting": "[1]", "result": 123.69}, {"measurement": "Relative cell count to DMSO controls, Average 5 μM", "setting": "[1]", "result": 129.2}, {"measurement": "Relative cell count to DMSO controls, Average 10 μM", "setting": "[1]", "result": 125.61}, {"measurement": "Relative cell count to DMSO controls, Average 25 μM", "setting": "[1]", "result": 112.58}, {"measurement": "Relative cell count to DMSO controls, Average 50 μM", "setting": "[1]", "result": 92.88}, {"measurement": "Toxicity Data, Average, Mean", "setting": "[1]; Average of Exp 1-3, n 9, 1 uM", "result": 123.69, "unit": "%"}, {"measurement": "Toxicity Data, Average, Mean", "setting": "[1]; Average of Exp 1-3, n 9, 5 uM", "result": 129.20, "unit": "%"}, {"measurement": "Toxicity Data, Average, Mean", "setting": "[1]; Average of Exp 1-3, n 9, 10 uM", "result": 125.61, "unit": "%"}, {"measurement": "Toxicity Data, Average, Mean", "setting": "[1]; Average of Exp 1-3, n 9, 25 uM", "result": 112.58, "unit": "%"}, {"measurement": "Toxicity Data, Average, Mean", "setting": "[1]; Average of Exp 1-3, n 9, 50 uM", "result": 92.88, "unit": "%"}, {"measurement": "Relative cell count to DMSO controls, Average (for correlation analysis)", "setting": "[1]", "result": 116.79}, {"measurement": "Infection Data, Average, Mean", "setting": "[2]; Average of Exp 1-3, n 9, 1 uM", "result": 83.26, "unit": "%"}, {"measurement": "Infection Data, Average, Mean", "setting": "[2]; Average of Exp 1-3, n 9, 5 uM", "result": 72.94, "unit": "%"}, {"measurement": "Infection Data, Average, Mean", "setting": "[2]; Average of Exp 1-3, n 9, 10 uM", "result": 71.95, "unit": "%"}, {"measurement": "Infection Data, Average, Mean", "setting": "[2]; Average of Exp 1-3, n 9, 25 uM", "result": 42.51, "unit": "%"}, {"measurement": "Infection Data, Average, Mean", "setting": "[2]; Average of Exp 1-3, n 9, 50 uM", "result": 25.76, "unit": "%"}, {"measurement": "Percentage Infection Relative to Appropriate DMSO Control with Avg Background Subtraction", "setting": "[2]; Exp 1 (SMW475), 1 uM", "result": "84.61% and 99.83% and 96.53%"}, {"measurement": "Percentage Infection Relative to Appropriate DMSO Control with Avg Background Subtraction", "setting": "[2]; Exp 1 (SMW475), 5 uM", "result": "76.20% and 84.17% and 85.48%"}, {"measurement": "Percentage Infection Relative to Appropriate DMSO Control with Avg Background Subtraction", "setting": "[2]; Exp 1 (SMW475), 10 uM", "result": "57.63% and 66.75% and 71.82%"}, {"measurement": "Percentage Infection Relative to Appropriate DMSO Control with Avg Background Subtraction", "setting": "[2]; Exp 1 (SMW475), 25 uM", "result": "23.73% and 16.03% and 21.54%"}, {"measurement": "Percentage Infection Relative to Appropriate DMSO Control with Avg Background Subtraction", "setting": "[2]; Exp 1 (SMW475), 50 uM", "result": "11.05% and 12.93% and 12.05%"}, {"measurement": "Percentage Infection Relative to Appropriate DMSO Control with Avg Background Subtraction", "setting": "[2]; Exp 2 (SMW477), 1 uM", "result": "76.88% and 82.87% and 95.55%"}, {"measurement": "Percentage Infection Relative to Appropriate DMSO Control with Avg Background Subtraction", "setting": "[2]; Exp 2 (SMW477), 5 uM", "result": "77.18% and 66.56% and 59.07%"}, {"measurement": "Percentage Infection Relative to Appropriate DMSO Control with Avg Background Subtraction", "setting": "[2]; Exp 2 (SMW477), 10 uM", "result": "81.53% and 45.87% and 61.92%"}, {"measurement": "Percentage Infection Relative to Appropriate DMSO Control with Avg Background Subtraction", "setting": "[2]; Exp 2 (SMW477), 25 uM", "result": "42.76% and 36.42% and 27.04%"}, {"measurement": "Percentage Infection Relative to Appropriate DMSO Control with Avg Background Subtraction", "setting": "[2]; Exp 2 (SMW477), 50 uM", "result": "22.07% and 19.29% and 19.84%"}, {"measurement": "Percentage Infection Relative to Appropriate DMSO Control with Avg Background Subtraction", "setting": "[2]; Exp 3 (SMW478), 1 uM", "result": "74.83% and 73.82% and 64.40%"}, {"measurement": "Percentage Infection Relative to Appropriate DMSO Control with Avg Background Subtraction", "setting": "[2]; Exp 3 (SMW478), 5 uM", "result": "80.66% and 70.90% and 56.23%"}, {"measurement": "Percentage Infection Relative to Appropriate DMSO Control with Avg Background Subtraction", "setting": "[2]; Exp 3 (SMW478), 10 uM", "result": "84.08% and 95.62% and 82.31%"}, {"measurement": "Percentage Infection Relative to Appropriate DMSO Control with Avg Background Subtraction", "setting": "[2]; Exp 3 (SMW478), 25 uM", "result": "59.17% and 74.77% and 81.13%"}, {"measurement": "Percentage Infection Relative to Appropriate DMSO Control with Avg Background Subtraction", "setting": "[2]; Exp 3 (SMW478), 50 uM", "result": "42.28% and 47.99% and 44.36%"}, {"measurement": "Percentage Inhibition Average 1 μM", "setting": "[2]", "result": 16.74, "unit": "%"}, {"measurement": "Screening data (Relative infection to DMSO controls) Average 1 μM", "setting": "[2]", "result": 83.26}, {"measurement": "Percentage Inhibition Average 5 μM", "setting": "[2]", "result": 27.06, "unit": "%"}, {"measurement": "Screening data (Relative infection to DMSO controls) Average 5 μM", "setting": "[2]", "result": 72.94}, {"measurement": "Percentage Inhibition Average 10 μM", "setting": "[2]", "result": 28.05, "unit": "%"}, {"measurement": "Screening data (Relative infection to DMSO controls) Average 10 μM", "setting": "[2]", "result": 71.95}, {"measurement": "Percentage Inhibition Average 25 μM", "setting": "[2]", "result": 57.49, "unit": "%"}, {"measurement": "Screening data (Relative infection to DMSO controls) Average 25 μM", "setting": "[2]", "result": 42.51}, {"measurement": "Percentage Inhibition Average 50 μM", "setting": "[2]", "result": 74.24, "unit": "%"}, {"measurement": "Screening data (Relative infection to DMSO controls) Average 50 μM", "setting": "[2]", "result": 25.76}, {"measurement": "Average (relative infection to DMSO over the 5 tested concentrations)", "setting": "[2]", "result": 59.28}]}
